Literature values in publication PMC3068529 (Journal of the American Chemical Society, 2011).

Biological target: T1, TLR3 (Homo sapiens, UniProt O15455)
T1 sequence (O15455 24-904): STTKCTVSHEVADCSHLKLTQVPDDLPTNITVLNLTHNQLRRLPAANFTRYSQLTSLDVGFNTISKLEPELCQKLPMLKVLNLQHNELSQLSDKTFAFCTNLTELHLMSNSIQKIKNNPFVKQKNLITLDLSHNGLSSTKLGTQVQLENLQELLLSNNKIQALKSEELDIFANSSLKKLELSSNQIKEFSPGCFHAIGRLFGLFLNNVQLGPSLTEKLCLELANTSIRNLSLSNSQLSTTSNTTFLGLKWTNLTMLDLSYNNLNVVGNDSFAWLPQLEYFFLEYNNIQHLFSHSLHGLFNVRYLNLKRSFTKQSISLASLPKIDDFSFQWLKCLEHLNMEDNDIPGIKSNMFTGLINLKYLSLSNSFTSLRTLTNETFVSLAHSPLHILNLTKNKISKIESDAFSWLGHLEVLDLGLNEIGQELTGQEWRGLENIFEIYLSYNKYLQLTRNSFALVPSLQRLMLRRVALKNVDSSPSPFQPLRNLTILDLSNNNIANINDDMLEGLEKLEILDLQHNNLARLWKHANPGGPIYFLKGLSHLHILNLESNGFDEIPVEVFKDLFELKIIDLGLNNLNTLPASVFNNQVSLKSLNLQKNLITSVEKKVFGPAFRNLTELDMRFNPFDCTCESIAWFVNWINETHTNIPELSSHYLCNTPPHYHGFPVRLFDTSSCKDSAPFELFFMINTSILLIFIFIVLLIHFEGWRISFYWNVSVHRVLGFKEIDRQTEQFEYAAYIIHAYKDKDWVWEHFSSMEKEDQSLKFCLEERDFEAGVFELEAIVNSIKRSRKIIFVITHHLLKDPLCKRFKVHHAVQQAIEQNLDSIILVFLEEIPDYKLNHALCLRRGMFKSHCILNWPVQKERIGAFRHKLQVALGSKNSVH
Conditions: dsRNA binding to TLR3

For “polyriboinosinic:polyribocytidylic acid [dsRNA]”, the Kd is given as 19 ± 0.9 nM.
